# Assay results taken from article PMC3006138, “Fexinidazole – A New Oral Nitroimidazole Drug Candidate Entering Clinical Development for the Treatment of Sleeping Sickness” (PLoS Neglected Tropical Diseases, 2010).
# Where “and” joins values, the source holds several entries; their conditions need not be identical. Equal values may be shown once.
# Experiments:
# L-6 rat myoblast cells = experiment: Cytotoxicity assay; format: cell-based; details: 72 h, read-out: IC50
# Description: 10 µL of Alamar Blue was added for the final 3 h to determine viability. […] The IC50 values were calculated from the sigmoidal inhibition curves. For cytotoxicity, 4×10^4/mL L-6 rat skeletal myoblast cells were used, and incubations and assessments carried out as above.
# [1] = test system: human hepatocytes (pooled); experiment: Hepatocyte intrinsic clearance and metabolite profile; format: in vitro ADME; details: for % of total drug related material: fexinidazole 10 µM
# Description: Fexinidazole was incubated with cryopreserved hepatocytes from male CD-1 mice, male Sprague Dawley rats, male beagle dogs, male cynomolgus monkeys, and from pooled white or African-American human donor samples (purchased commercially), at concentrations of 1 µM and 10 µM. […] The incubated samples were analyzed by LC-MS after extraction into acetonitrile.
# A quality control analysis of fexinidazole was performed via 1H-NMR in DMSO and LC- […]
# provided by the Swiss Tropical Institute (Basel, Switzerland).
# Reagents and solvents were of analytical grade and obtained from Sigma-Aldrich (St. Louis, […]
# Cryopreserved hepatocytes from the male CD1 mouse, lot CSI; male Sprague Dawley rat, lot LPL; male beagle dog, lot BWX; male cynomolgus monkey, lot EHH; and pooled human samples, lot MJI, were purchased from In Vitro Technologies Inc (Baltimore, Maryland, […]
# 5.4. In vitro Incubations
# On the day of the experiment a 10 mM stock solution of fexinidazole in DMSO was prepared and, within 3 hours, aliquots of this freshly prepared solution, after suitable dilution, were added to the incubation matrix, to reach fexinidazole final concentrations of 1 and 10 µM. The final percentage of DMSO was 0.01% in the incubation samples for the […]
# On the day of experiment, the cryopreserved hepatocytes were thawed following the detailed instructions provided by the supplier.
# The number of viable cells was determined using a Trypan Blue exclusion method.
# 5.4.1. Intrinsic Clearance Study […]
# µM with mouse, rat, dog, monkey and human hepatocytes (300000 cells/mL for the mouse and 1 million cells/mL for the other species) in a final incubation volume of 0.75 mL […]
# Incubations were performed in duplicate in a 48-well plate under shaking. Sampling was performed using an automatic liquid handling system (Multiprobe II EX, Packard). At 0, 1, 5, 10, 15, 20, 30, 60 and 120 minutes, 50 µL aliquots of the incubates were taken, then 80 µL of ice-cold acetonitrile and 20 µL of 1 µM warfarin in acetonitrile (internal standard) were added, and samples centrifuged at 2000 rpm for 20 min. The supernatant was analyzed by LC-MS/MS. […]
# the medium alone at t = 0 and 120 minutes.
# For the determination of phase I and phase II activity of hepatocytes, 7-ethoxycoumarin (7-EC) 1 µM, and 7-hydroxycoumarin (7-HC) 30 µM were used as positive controls and incubated under the same conditions as fexinidazole. Aliquots of incubates were taken at 0, 10, 20, 30, 60 and 120 minutes and processed as fexinidazole samples.
# 5.4.2. Metabolite Profile Study
# For metabolite profiling, fexinidazole was incubated at a concentration of 10 µM with mouse, rat, dog, monkey and human hepatocytes (300000 cells/mL for the mouse and 1 million cells/mL for the other species) in a final incubation volume of 2 mL Leibovitz L-15 […]
# Aliquots of the incubation samples were taken at t = 0, 30 and 120 minutes; the metabolism was stopped by the addition of an equal volume of cold acetonitrile and the samples centrifuged at 1500 rpm for 20 min. The supernatant was stored at -20°C until analysis. Control incubations were performed with the compound in the medium alone […]
# 5.5. Analysis of Samples for Intrinsic Clearance Determination
# The analysis of the samples for intrinsic clearance determination was performed by an LC-MS/MS method, using the following conditions:
# HPLC Equipment and Conditions
# HPLC system Agilent 1100 binary pump (Agilent, Palo Alto, USA)
# Autosampler CTC Pal (Alfatech, San Jose, USA)
# Analytical column Guard Column SB-C8 4.6 x 12.5 mm, 5 µm (Zorbax)
# Column temperature ambient
# Mobile phase A 10 mM ammonium formate pH 4.0: acetonitrile (95:5, v:v)
# Mobile phase B 10 mM ammonium formate pH 4.0: acetonitrile (5:95, v:v) […]
# Gradient conditions Step Total time (min) flow (µL/min) %A % B […]
# MS Equipment and Conditions
# Mass spectrometer API 4000 Triple Quadrupole (MDS-Sciex, Toronto, […]
# Source Turbo Ion Spray (TIS)
# Ion mode Positive for fexinidazole and 7-EC.
# Negative for 7-HC, 7-HC sulphate and 7-HC glucuronide.
# [2] = Chemical stability in incubation medium alone; format: physicochemical; details: fexinidazole 10 µM, Leibovitz medium alone, 120 min
# Description: Incubations were performed in duplicate in a 48-well plate under shaking. Sampling was performed using an automatic liquid handling system (Multiprobe II EX, Packard). […] in acetonitrile (internal standard) were added, and samples centrifuged at 2000 rpm for 20 min. The supernatant was analyzed by LC-MS/MS. The chemical stability of fexinidazole was checked by incubating the compound at 37°C in the medium alone at t = 0 and 120 minutes. For the determination of phase I and phase II activity of hepatocytes, 7-ethoxycoumarin (7- […] incubated under the same conditions as fexinidazole. Aliquots of incubates were taken at 0, 10, 20, 30, 60 and 120 minutes and processed as fexinidazole samples. […] Metabolite Profile Study […] mouse, rat, dog, monkey and human hepatocytes (300000 cells/mL for the mouse and 1 million cells/mL for the other species) in a final incubation volume of 2 mL Leibovitz L-15 medium, at 37°C. Aliquots of the incubation samples were taken at t = 0, 30 and 120 minutes; the metabolism was stopped by the addition of an equal volume of cold acetonitrile and the samples centrifuged at 1500 rpm for 20 min. The supernatant was stored at -20°C until analysis. Control incubations were performed with the compound in the medium alone for 120 minutes. […] Nerviano Medical Sciences […] For the determination of phase I and phase II activities of hepatocytes, 7-ethoxycoumarin (7- […] incubated under the same conditions as fexinidazole. Aliquots of incubates were taken at 0, […] 7.5.2. Metabolite Profile Study […] pooled human hepatocytes (1 million cells/mL) in a final incubation volume of 2 mL Leibovitz L-15 medium, at 37°C. Aliquots of the incubation samples were taken at t = 0, 30 and 120 minutes; the metabolism was stopped by the addition of an equal volume of cold acetonitrile and the samples centrifuged at 1100 rpm for 20 min. The supernatant was stored at -20°C until analysis. Control incubations were performed with the compound in the medium alone for 120 minutes. […] Valco Divert Valve Step Total time (min) Position […]
# human lymphocytes = experiment: In vitro micronucleus test; format: cell-based
# Description: Duplicate human lymphocyte cultures were prepared from the pooled blood of two donors in two independent experiments. […] The test concentrations for micronucleus analysis were selected by evaluating the effect of fexinidazole on the replication index (RI). In each experiment, micronuclei were analysed at three concentrations. Similar tests were carried out on fexinidazole sulfone. As per the Ames test, this was carried out in the absence of rat liver S9 only.
SMILES,IC50 (L-6 rat myoblast cells),t1/2 ([1]; 1 µM),% of total drug related material ([1]; 30 min),% of total drug related material ([1]; 120 min),% of total drug related material ([1]; t=0),% of total drug related material [2],% of total drug related material ([2]; listed as P),in vitro micronucleus test result (human lymphocytes),"Micronucleated binucleate cells (human lymphocytes; 20 μg/mL, 24-h PHA, +S9)","Micronucleated binucleate cells (human lymphocytes; 20 μg/mL, 24-h PHA, −S9)","Micronucleated binucleate cells (human lymphocytes; 20 μg/mL, 48-h PHA, +S9)","Micronucleated binucleate cells (human lymphocytes; 20 μg/mL, 48-h PHA, −S9)","Micronucleated binucleate cells (human lymphocytes; 40 μg/mL, 24-h PHA, +S9)","Micronucleated binucleate cells (human lymphocytes; 40 μg/mL, 24-h PHA, −S9)","Micronucleated binucleate cells (human lymphocytes; 40 μg/mL, 48-h PHA, +S9)","Micronucleated binucleate cells (human lymphocytes; 40 μg/mL, 48-h PHA, −S9)","Micronucleated binucleate cells (human lymphocytes; 80 μg/mL, 24-h PHA, +S9)","Micronucleated binucleate cells (human lymphocytes; 80 μg/mL, 24-h PHA, −S9)","Micronucleated binucleate cells (human lymphocytes; 80 μg/mL, 48-h PHA, +S9)","Micronucleated binucleate cells (human lymphocytes; 80 μg/mL, 48-h PHA, −S9)"
"CSc1ccc(OCc2ncc([N+](=O)[O-])n2C)cc1 [Fexinidazole, 1-methyl-2-((p-(methylthio)phenoxy)methyl)-5-nitroimidazole]",> 90 µg/mL and > 322 µM,13.4 min,2%,< 1%,83%,about 84%,82%,did not induce the formation of micronuclei,0.50%,0.50%,0.60%,1.1%,0.55%,0.40%,1.20%,0.60%,0.75%,0.70%,0.40%,0.90%
Cn1c([N+](=O)[O-])cnc1COc1ccc(S(C)(=O)=O)cc1 [Fexinidazole sulfone],> 90 µg/mL and > 289 µM,–,2%,4%,–,–,–,negative,–,–,–,–,–,–,–,–,–,–,–,–
Cn1c([N+](=O)[O-])cnc1COc1ccc([S+](C)[O-])cc1 (centres unmarked) [Fexinidazole sulfoxide],> 90 µg/mL and > 305 µM,–,96%,95%,17%,18%,–,–,–,–,–,–,–,–,–,–,–,–,–,–
